Data reported in the NIST ThermoML archive (doi:10.1016/j.jct.2009.07.018).
± gives the expanded uncertainty stated by the source.

What was measured:
[1] = Maximal bubble pressure
[2] = xn = mol fraction of the nth substance listed; details: Maximal bubble pressure

CCCCCCCCCC [decane]
[1]
Details	surface tension liquid-gas [mN/m]
293.15 K	23.83 ± 0.26
303.15 K	22.91 ± 0.26
313.15 K	21.91 ± 0.25
323.15 K	21.07 ± 0.25
333.15 K	20.15 ± 0.25
343.15 K	19.23 ± 0.24

CCCCCCC [heptane]
[1]
Details	surface tension liquid-gas [mN/m]
283.15 K	21.11 ± 0.25
293.15 K	20.12 ± 0.25
303.15 K	19.13 ± 0.24
313.15 K	18.11 ± 0.24
323.15 K	17.15 ± 0.23

CCCCC [pentane]
[1]
Details	surface tension liquid-gas [mN/m]
293.15 K	15.94 ± 0.23
298.15 K	15.3 ± 0.22
305.15 K	14.36 ± 0.22
318.15 K	12.6 ± 0.21
323.15 K	11.95 ± 0.21

CCCCC [pentane] + CCCCCCC
surface tension liquid-gas [mN/m], [2]
Details	x1 = 0.165	x1 = 0.308	x1 = 0.432	x1 = 0.542	x1 = 0.64	x1 = 0.727	x1 = 0.877	x1 = 0.971
293.15 K	19.62 ± 0.24	19.11 ± 0.24	18.6 ± 0.24	18.15 ± 0.24	17.71 ± 0.23	17.29 ± 0.23	16.65 ± 0.23	16.08 ± 0.23
298.15 K	18.98 ± 0.24	18.5 ± 0.24	17.9 ± 0.24	17.35 ± 0.23	16.9 ± 0.23	16.48 ± 0.23	15.85 ± 0.23	15.29 ± 0.22
305.15 K	18.16 ± 0.24	17.64 ± 0.23	17.13 ± 0.23	16.64 ± 0.23	16.17 ± 0.23	15.74 ± 0.23	14.97 ± 0.22	14.49 ± 0.22
318.15 K	16.91 ± 0.23	16.24 ± 0.23	15.66 ± 0.23	15.1 ± 0.22	14.57 ± 0.22	14.08 ± 0.22	13.23 ± 0.22	12.7 ± 0.21
323.15 K	16.33 ± 0.23	15.55 ± 0.23	14.88 ± 0.22	14.4 ± 0.22	13.93 ± 0.22	13.41 ± 0.22	12.6 ± 0.21	12.12 ± 0.21

O [water]
[1]
Details	surface tension liquid-gas [mN/m]
293.15 K	72.84 ± 0.42
298.15 K	72.03 ± 0.42
303.15 K	71.24 ± 0.41
308.15 K	70.44 ± 0.41
313.15 K	69.61 ± 0.41
323.15 K	67.96 ± 0.4
